These are literature values, as cited in publication PMC10202811 (Nature Medicine, 2023).

Data set [1] concerns ALK-driven malignancies. Details: method as in PMID 34780709. Conditions: children, 6/30; cited from earlier work.
Data set [2] deals with inflammatory myofibroblastic tumors. Conditions: cited from earlier work.

`Cc1cc(Nc2ncc(Cl)c(Nc3ccccc3S(=O)(=O)C(C)C)n2)c(OC(C)C)cc1C1CCNCC1` [ceritinib]: the “RR (complete/partial)” value in data set [1] was 20%.
`C[C@@H](Oc1cc(-c2cnn(C3CCNCC3)c2)cnc1N)c1c(Cl)ccc(F)c1Cl` [crizotinib]: in data set [2], the RR was 86%.
